Measurements from patent publication US20200179285A1, “BIODEGRADABLE MICROPARTICLES FOR SUSTAINED DELIVERY OF ANTI-ANGIOGENIC PEPTIDE” (The Johns Hopkins University, priority 2017, published 2020).

System: VEGF-induced vascular leakage
Experiment: VEGF-induced vascular leakage in rabbit eyes
Type: in vivo
Settings: single injection, day 60, FIG. 4G

aflibercept
activity against VEGF-induced vascular leakage: no longer showed activity
